{"source": "paper PMC11645267", "about": "“Novel pharmacologic inhibition of lysine-specific demethylase 1 as a potential therapeutic for glioblastoma” (Cancer Gene Therapy, 2024)", "key": {"MAO-B": {"target": "T1, MAO-B (Homo sapiens, UniProt P27338)", "T1 sequence (P27338 1-520)": "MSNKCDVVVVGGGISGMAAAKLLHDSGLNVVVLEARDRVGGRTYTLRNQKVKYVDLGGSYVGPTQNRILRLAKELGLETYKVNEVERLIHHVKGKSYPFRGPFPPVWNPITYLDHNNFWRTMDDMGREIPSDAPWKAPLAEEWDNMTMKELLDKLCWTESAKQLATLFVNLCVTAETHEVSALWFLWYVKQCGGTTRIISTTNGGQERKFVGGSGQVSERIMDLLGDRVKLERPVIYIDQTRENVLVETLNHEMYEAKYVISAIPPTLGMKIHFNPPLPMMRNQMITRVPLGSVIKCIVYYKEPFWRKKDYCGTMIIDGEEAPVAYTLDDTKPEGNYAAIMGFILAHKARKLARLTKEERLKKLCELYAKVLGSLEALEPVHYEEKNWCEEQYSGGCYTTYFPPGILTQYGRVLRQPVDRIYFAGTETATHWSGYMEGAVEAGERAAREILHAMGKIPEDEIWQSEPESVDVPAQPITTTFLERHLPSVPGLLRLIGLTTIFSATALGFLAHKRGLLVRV", "assay": "Enzyme inhibition assay (in vitro peroxidase assay) against MAO-B", "method": "Enzyme inhibition assays against LSD1, LSD2, MAO-A, and MAO-B were performed as previously described [25]. Technical replicates, n = 3."}, "[1]": {"tested_on": "GSC1228, GSC222, and GSC316", "assay": "Western blot of global histone modifications", "format": "cell-based", "conditions": "5 μM, 96 h; changes not statistically significant", "description": "The effects of S2172 on global histone modifications in GSCs were examined using western blot analysis. GSC cells were treated with 5 μM of S2172 since […] of the cells are still viable at this concentration (Fig. 2, Supplementary Fig. S1E). […] Treatment of GSCs with S2172 increased the overall levels of H3K4me2 as well as H3K9me2. However, these changes were not statistically significant (Fig. 2A, B).\nFig. 2 S2172 affected H3K4me2 modifications. A Western blot analysis of H3K4me1, H3K4me2, H3K4me3, H3K9me2, and H3 after treatment with either DMSO or S2172 (5 μM) for 96 h in GSC1228, GSC222, and GSC316. Histone H3 was used as the loading control. B Quantification of band signal intensities from the western blot of A. The y-axis in the panel indicates relative signal intensity of each protein normalized to histone H3. Error bars indicate the SD. […]\nThe density of bands was quantified using ImageJ software (https://imagej.nih.gov/ij/). […]\nWhen mice were scanned with MRI, mice were anesthetized with isoflurane (3% in air) and placed in MRS 3017 Benchtop MRI Systems (MR Solutions, Guildford, UK). Using MRI images, tumor volumes were obtained by compiling tumor areas from all slices that contained tumors and calculated by ImageJ software (https://imagej.nih.gov/ij/) {Towner, […]"}}, "data": [{"smiles": "NC1CCC(NC2CC2c2cc(F)cc(F)c2OCc2ccccc2)CC1", "note": "(stereo not drawn) [S2172]", "values": [{"measurement": "Ki", "setting": "MAO-B", "value": "> 250", "unit": "µM"}, {"measurement": "Inhibition of MAO-B (in words)", "setting": "MAO-B; in vitro peroxidase assay", "value": "not inhibited"}, {"measurement": "overall levels of H3K4me2 and H3K9me2", "setting": "[1]", "value": "increased"}]}]}
